Laboratory results taken from PubChem BioAssay (NCI).
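All cell lines were grown in 96-well plates and treated with compound for 48 hours. The concentration for 50% growth inhibition is given as GI50. TGI denotes the concentration required for complete inhibition of growth.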

What was measured:
Assay in all cases: DTP human tumour cell line panel, 48 h
DU-145 prostate = system: DU-145 prostate
HCC-2998 colon = system: HCC-2998 colon
HCT-15 colon = system: HCT-15 colon
IGROV1 ovarian = system: IGROV1 ovarian
KM12 colon = system: KM12 colon
MOLT-4 leukemia = system: MOLT-4 leukemia
NCI-H226 lung = system: NCI-H226 lung
OVCAR-4 ovarian = system: OVCAR-4 ovarian
SK-OV-3 ovarian = system: SK-OV-3 ovarian
U251 CNS = system: U251 CNS

SMILES | GI50 (DU-145 prostate) | TGI (DU-145 prostate) | GI50 (HCC-2998 colon) | TGI (HCC-2998 colon) | GI50 (HCT-15 colon) | TGI (HCT-15 colon) | GI50 (IGROV1 ovarian) | TGI (IGROV1 ovarian) | GI50 (KM12 colon) | TGI (KM12 colon) | GI50 (MOLT-4 leukemia) | TGI (MOLT-4 leukemia) | GI50 (NCI-H226 lung) | TGI (NCI-H226 lung) | GI50 (OVCAR-4 ovarian) | TGI (OVCAR-4 ovarian) | GI50 (SK-OV-3 ovarian) | TGI (SK-OV-3 ovarian) | GI50 (U251 CNS) | TGI (U251 CNS)
Cc1cc(Nc2cc(CN3CCOCC3)c3nc(C)c(Cc4ccc(Cl)cc4F)n3n2)n[nH]1 | 1.24 µM | 11.5 µM | 1.49 µM | 3.13 µM | 2.62 µM | 14.9 µM | 2.15 µM | 5.57 µM | 0.0481 µM | 5.6 µM | 1.59 µM | 6.71 µM | 0.561 µM | 4.07 µM | 2.85 µM | 16.7 µM | 2.02 µM | 6.38 µM | 1.52 µM | 5.24 µM
OC(COc1cccc2ccccc12)CN1CCN(c2ccc(Cl)cc2)CC1 (stereo not given) | 38.9 µM | > 100 µM | > 100 µM | > 100 µM | > 100 µM | > 100 µM | 14.6 µM | 40 µM | 38.3 µM | > 100 µM | > 100 µM | > 100 µM | 13.8 µM | 70.4 µM | 21.7 µM | 49.3 µM | 14.7 µM | 45.2 µM | 12.6 µM | 29.9 µM
COc1cc(-c2nc3ccccc3[nH]2)ccc1OCC(=O)N=Nc1c(O)[nH]c2ccc(Cl)cc12 | 1.68 µM | 3.43 µM | 1.32 µM | 2.8 µM | 4.9 µM | > 100 µM | 1.52 µM | 3.05 µM | 1.41 µM | 3.24 µM | 0.827 µM | 3.12 µM | 1.83 µM | 3.74 µM | 2.02 µM | 3.54 µM | 1.9 µM | 3.93 µM | 0.468 µM | 1.88 µM
O=C1OCC2=C1C(c1cccc(C(F)(F)F)c1)c1cc3c(cc1N2CCO)OCO3 (stereo not given) | 1.72 µM | > 50 µM | 1.55 µM | 17 µM | 0.511 µM | > 50 µM | 1.61 µM | > 50 µM | 1.88 µM | > 50 µM | 1.02 µM | > 50 µM | 21.7 µM | > 50 µM | 2.49 µM | > 50 µM | 2.37 µM | > 50 µM | 1.82 µM | > 50 µM
CC(N)(Cc1c[nH]c2ccccc12)C(=O)O (stereo not given) | > 2500 µM | > 2500 µM | > 2500 µM | > 2500 µM | > 2500 µM | > 2500 µM | > 2500 µM | > 2500 µM | > 2500 µM | > 2500 µM | > 2500 µM | > 2500 µM | > 2500 µM | > 2500 µM | > 2500 µM | > 2500 µM | > 2500 µM | > 2500 µM | > 2500 µM | > 2500 µM
Cc1ccc(Nc2[nH]c(C(=O)c3ccc(Cl)cc3)c(N)c2C(=S)Nc2ccccc2)nc1 | 31.2 µM | > 100 µM | 15.9 µM | 33.2 µM | 31 µM | > 100 µM | 31.3 µM | > 100 µM | 16.8 µM | 54.9 µM | 56.3 µM | > 100 µM | 26 µM | 91.3 µM | 63.6 µM | > 100 µM | 52.3 µM | > 100 µM | 26.8 µM | > 100 µM
